Several values for one entry are separate records, joined by “and”; a condition that tells them apart may be missing. Equal entries are not always repeated. Inconclusive results and toxic doses are left out.
System: L1210 leukemia ip in BDF1 mice, survival T/C
Test: NCI In Vivo Anticancer Drug Screen. Data for tumor model L1210 Leukemia (intraperitoneal) in B6D2F1 (BDF1) mice
Conditions: endpoint: mean survival time, higher = longer survival
Method in brief: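 Survival endpoint. Drug-treated group vs vehicle group, expressed as T divided by C. Tumor passaged by transplantation.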

[1] = dose: 100.0 mg/kg/injection, schedule: Q01DX009 (ip), vehicle: saline with Tween-80
[2] = dose: 200.0 mg/kg/injection, schedule: Q01DX009 (ip), vehicle: saline with Tween-80
[3] = dose: 400.0 mg/kg/injection, schedule: Q01DX009 (ip), vehicle: saline with Tween-80
[4] = dose: 100.0 mg/kg/injection, schedule: Q04DX003 (ip), vehicle: saline with Tween-80
[5] = dose: 200.0 mg/kg/injection, schedule: Q04DX003 (ip), vehicle: saline with Tween-80
[6] = dose: 400.0 mg/kg/injection, schedule: Q04DX003 (ip), vehicle: saline with Tween-80
[7] = dose: 12.5 mg/kg/injection, schedule: Q04DX003 (ip), vehicle: Klucel (hydroxypropylcellulose) (HPC)
[8] = dose: 25.0 mg/kg/injection, schedule: Q04DX003 (ip), vehicle: Klucel (hydroxypropylcellulose) (HPC)
[9] = dose: 100.0 mg/kg/injection, schedule: Q01DX001 (ip), vehicle: saline
[10] = dose: 200.0 mg/kg/injection, schedule: Q01DX001 (ip), vehicle: saline
[11] = dose: 400.0 mg/kg/injection, schedule: Q01DX001 (ip), vehicle: saline
[12] = dose: 100.0 mg/kg/injection, schedule: Q01DX009 (ip), vehicle: Klucel (hydroxypropylcellulose) (HPC)
[13] = dose: 200.0 mg/kg/injection, schedule: Q01DX009 (ip), vehicle: Klucel (hydroxypropylcellulose) (HPC)
[14] = dose: 100.0 mg/kg/injection, schedule: Q01DX001 (ip), vehicle: saline with Tween-80
[15] = dose: 200.0 mg/kg/injection, schedule: Q01DX001 (ip), vehicle: saline with Tween-80
[16] = dose: 100.0 mg/kg/injection, schedule: Q01DX001 (ip), vehicle: Klucel (hydroxypropylcellulose) (HPC)
[17] = dose: 200.0 mg/kg/injection, schedule: Q01DX001 (ip), vehicle: Klucel (hydroxypropylcellulose) (HPC)

In the case of Cc1ccc(NC(=O)N(CCCl)N=O)c(NC(=O)N(CCCl)N=O)c1, the T/C (dose: 30.0 mg/kg/injection, schedule: Q01DX001 (ip), vehicle: carboxymethylcellulose (CMC)) is reported as 117 % of control, the T/C (dose: 33.0 mg/kg/injection, schedule: Q01DX001 (ip), vehicle: carboxymethylcellulose (CMC)) is reported as 107 % of control and the T/C (dose: 33.0 mg/kg/injection, schedule: Q01DX009 (ip), vehicle: carboxymethylcellulose (CMC)) is reported as 108 % of control. For the same compound, the T/C (dose: 50.0 mg/kg/injection, schedule: Q01DX009 (ip), vehicle: carboxymethylcellulose (CMC)) was 88 % of control, the T/C (dose: 75.0 mg/kg/injection, schedule: Q01DX001 (ip), vehicle: carboxymethylcellulose (CMC)) was 113 % of control and the T/C (dose: 112.0 mg/kg/injection, schedule: Q01DX001 (ip), vehicle: carboxymethylcellulose (CMC)) was 96 % of control.
In the case of C=C[CH2][Sn]([Br])([Br])[CH2]C=C, the T/C [1] is reported as 106 % of control, the T/C [2] is reported as 95 % of control and the T/C [3] is reported as 95 % of control.
With CC(=N\N=C(N)N)/C(=N/N=C(N)N)c1ccccc1 the T/C (dose: 3.75 mg/kg/injection, schedule: Q01DX Z (ip), vehicle: saline) was 92 % of control, the T/C (dose: 7.5 mg/kg/injection, schedule: Q01DX Z (ip), vehicle: saline) was 96 % of control and the T/C (dose: 15.0 mg/kg/injection, schedule: Q01DX Z (ip), vehicle: saline) was 95 % of control and 102 % of control. The T/C (dose: 30.0 mg/kg/injection, schedule: Q01DX Z (ip), vehicle: saline) was 92 % of control and the T/C (dose: 240.0 mg/kg/injection, schedule: Q01DX009 (oral), vehicle: saline) was 88 % of control.
CCCCCCOC(=O)Nc1cccc(O)c1 was tested, and the T/C [4] was 104 % of control, the T/C [5] was 101 % of control and the T/C [6] was 91 % of control.
In the case of CC(=O)Nc1ccc(CCCCc2cccc(C(=N)N)c2)cc1, the T/C (dose: 12.5 mg/kg/injection, schedule: Q01DX009 (ip), vehicle: saline) is reported as 101 % of control, the T/C [7] is reported as 102 % of control and the T/C (dose: 25.0 mg/kg/injection, schedule: Q01DX009 (ip), vehicle: saline) is reported as 101 % of control. For the same compound, the T/C [8] was 100 % of control, the T/C (dose: 50.0 mg/kg/injection, schedule: Q01DX009 (ip), vehicle: saline) was 95 % of control and the T/C (dose: 50.0 mg/kg/injection, schedule: Q04DX003 (ip), vehicle: Klucel (hydroxypropylcellulose) (HPC)) was 102 % of control.
In the case of CN(C)S(=O)(=O)c1ccc(NC(=O)OCc2ccccc2)cc1, the T/C [9] is reported as 96 % of control, the T/C [10] is reported as 94 % of control and the T/C [11] is reported as 92 % of control.
With COc1cccnc1/C=N/NC(N)=S the T/C (dose: 12.5 mg/kg/injection, schedule: Q01DX009 (ip), vehicle: saline with Tween-80) was 150 % of control.
COc1cc(OC)c(NC(=O)CCl)cc1Cl was tested, and the T/C [12] was 104 % of control and the T/C [13] was 98 % of control.
With C=C(C)COc1c(C)cc(C)cc1[N+](=O)[O-] the T/C [4] was 96 % of control, the T/C [5] was 100 % of control and the T/C [6] was 97 % of control.
O=C(NN1C(=O)CSC1=S)c1ccc([N+](=O)[O-])s1 was tested, and the T/C (dose: 50.0 mg/kg/injection, schedule: Q01DX005 (ip), vehicle: saline) was 96 % of control and the T/C (dose: 100.0 mg/kg/injection, schedule: Q01DX005 (ip), vehicle: saline) was 102 % of control.
For CC(C)(C)N1CC(C(=O)c2ccccc2)C1c1ccccc1 (centres undefined), the T/C [9] was 94 % of control, the T/C [12] was 96 % of control and the T/C [4] was 96 % of control and 107 % of control. The T/C [10] was 94 % of control, the T/C [13] was 101 % of control and the T/C [5] was 90 % of control and 94 % of control. For the same compound, the T/C [11] was 92 % of control, the T/C (dose: 400.0 mg/kg/injection, schedule: Q01DX009 (ip), vehicle: Klucel (hydroxypropylcellulose) (HPC)) was 100 % of control and the T/C [6] was 96 % of control and 98 % of control.
c1ccc(CN2CCCCc3ccccc32)cc1 was tested, and the T/C [4] was 93 % of control and the T/C [5] was 88 % of control.
For CCOC(=O)c1ccc(NCc2nnc3nc(N)nc(N)c3n2)cc1, the T/C (dose: 50.0 mg/kg/injection, schedule: Q01DX001 (ip), vehicle: saline with Tween-80) was 103 % of control, the T/C [14] was 98 % of control and the T/C [15] was 97 % of control.
For Clc1cc(CBr)c(Cl)c(Cl)c1CBr, the T/C (dose: 6.25 mg/kg/injection, schedule: Q01DX009 (ip), vehicle: saline sonified) was 94 % of control, the T/C (dose: 6.25 mg/kg/injection, schedule: Q04DX003 (ip), vehicle: Klucel (hydroxypropylcellulose) (HPC)) was 97 % of control and the T/C (dose: 12.5 mg/kg/injection, schedule: Q01DX009 (ip), vehicle: saline sonified) was 94 % of control. For the same compound, the T/C [7] was 91 % of control, the T/C (dose: 25.0 mg/kg/injection, schedule: Q01DX009 (ip), vehicle: saline sonified) was 91 % of control and the T/C [8] was 98 % of control.
CC1CCc2cc3c(cc2C1=O)sc1ccccc13 (centres undefined) was tested, and the T/C [9] was 108 % of control, the T/C [10] was 105 % of control and the T/C [11] was 89 % of control.
In the case of O=C1NC(c2ccccc2)(c2ccccc2)CN1CCO, the T/C [14] is reported as 95 % of control, the T/C [15] is reported as 95 % of control and the T/C (dose: 400.0 mg/kg/injection, schedule: Q01DX001 (ip), vehicle: saline with Tween-80) is reported as 93 % of control.
In the case of CCC(C1CCC(O)CC1)C(CC)C1CCC(C2=CC(=O)OC2)CC1 (centres undefined), the T/C (dose: 25.0 mg/kg/injection, schedule: Q04DX003 (ip), vehicle: saline) is reported as 100 % of control, the T/C (dose: 50.0 mg/kg/injection, schedule: Q04DX003 (ip), vehicle: saline) is reported as 94 % of control and the T/C (dose: 100.0 mg/kg/injection, schedule: Q04DX003 (ip), vehicle: saline) is reported as 94 % of control.
With CCCCc1cccc(N2C(N)=NC(N)=NC2(C)C)c1 the T/C (dose: 12.5 mg/kg/injection, schedule: Q01DX001 (ip), vehicle: saline) was 103 % of control and the T/C (dose: 50.0 mg/kg/injection, schedule: Q01DX001 (ip), vehicle: saline) was 89 % of control.
For CC[n+]1ccc(Nc2ccc(NC(=O)c3ccc(C(=O)Nc4ccc(Nc5cc[n+](CC)c(N)n5)cc4)cc3)cc2)nc1N, the T/C [9] was 190 % of control, the T/C (dose: 133.0 mg/kg/injection, schedule: Q01DX009 (ip), vehicle: saline) was 88 % of control and the T/C (dose: 150.0 mg/kg/injection, schedule: Q01DX001 (ip), vehicle: saline) was 228 % of control. The T/C (dose: 225.0 mg/kg/injection, schedule: Q01DX001 (ip), vehicle: saline) was 203 % of control.
With [Se]c1ncnc2nc[nH]c12 the T/C (dose: 25.0 mg/kg/injection, schedule: Q01DX001 (ip), vehicle: carboxymethylcellulose (CMC)) was 103 % of control, the T/C (dose: 50.0 mg/kg/injection, schedule: Q01DX001 (ip), vehicle: carboxymethylcellulose (CMC)) was 93 % of control and the T/C (dose: 100.0 mg/kg/injection, schedule: Q01DX001 (ip), vehicle: carboxymethylcellulose (CMC)) was 121 % of control.
For CCOC(=O)CC(NC(=O)N(CCCl)CCCl)C(=O)OCC (centres undefined), the T/C (dose: 62.5 mg/kg/injection, schedule: Q01DX Z (ip), vehicle: water) was 101 % of control, the T/C (dose: 125.0 mg/kg/injection, schedule: Q01DX Z (ip), vehicle: water) was 108 % of control and the T/C (dose: 250.0 mg/kg/injection, schedule: Q01DX Z (ip), vehicle: water) was 111 % of control.
In the case of [N-]=[N+]=Nc1ccc(-c2nc(N)[nH]c(=O)c2Br)cc1, the T/C (dose: 100.0 mg/kg/injection, schedule: Q04DX003 (ip), vehicle: Klucel (hydroxypropylcellulose) (HPC)) is reported as 93 % of control, the T/C (dose: 200.0 mg/kg/injection, schedule: Q04DX003 (ip), vehicle: Klucel (hydroxypropylcellulose) (HPC)) is reported as 86 % of control and the T/C (dose: 400.0 mg/kg/injection, schedule: Q04DX003 (ip), vehicle: Klucel (hydroxypropylcellulose) (HPC)) is reported as 100 % of control.
In the case of O=C(O)CCCc1ccc([N+](=O)[O-])cc1Cl, the T/C [1] is reported as 103 % of control and the T/C [2] is reported as 105 % of control.
Cc1ccc(S(=O)(=O)N/N=C/c2c(O)ccc3ccccc23)cc1 was tested, and the T/C [1] was 87 % of control, the T/C [4] was 96 % of control and the T/C [2] was 89 % of control. The T/C [5] was 94 % of control, the T/C [3] was 91 % of control and the T/C [6] was 94 % of control.
In the case of CC(=O)Nc1nc(/C=C/C(=O)CCl)c(CCCCc2ccccc2)c(=O)[nH]1, the T/C (dose: 50.0 mg/kg/injection, schedule: Q01DX001 (ip), vehicle: Klucel (hydroxypropylcellulose) (HPC)) is reported as 93 % of control, the T/C [16] is reported as 102 % of control and the T/C [17] is reported as 96 % of control.
For CC(=O)OC1OC2COC(C)(C)OCC2C(OC(C)=O)C1OC(C)=O (centres undefined), the T/C [14] was 96 % of control and the T/C [15] was 104 % of control.
In the case of O=S1(=O)CCC/C1=C\c1ccccc1, the T/C [16] is reported as 121 % of control, the T/C [17] is reported as 103 % of control and the T/C (dose: 400.0 mg/kg/injection, schedule: Q01DX001 (ip), vehicle: Klucel (hydroxypropylcellulose) (HPC)) is reported as 101 % of control.
